Measurements: patent US20230399295A1, “COMPOSITIONS FOR INCREASING TISSUE REGENERATION AND DELAYING OR REDUCING GRANULOMA FORMATION” (THE BRIGHAM AND WOMEN'S HOSPITAL, INC., priority 2020, published 2023)

Experiments:
[1] = Half-life in the body (statement only, no method); settings: in vivo
[2] = test system: Planaria (Dugesia japonica); test: Planaria regeneration after surgical injury; assay type: in vivo
Procedure: Planaria were surgically injured post-ocular and received either vehicle (0.1% ethanol) or 10 nM 4,5-RCTR1 one-hour post-injury and imaged daily for six days. A) Representative images of Planaria regeneration from Day 1-6 post-surgical injury. B) Tissue regeneration indices (μm) from Day 1-6 post-surgically injured Planaria. C) Tissue regeneration rate (TRR, μm/day) is the rate (area of tissue regeneration/days at TRI50) to achieve 50% tissue regeneration after surgical injury. n=6 Planaria per group per day. Data represented as mean±SEM. Unpaired two-tailed Student's t-test. *p<0.05, **p<0.01, ***p<0.001, and ****p<0.0001 versus vehicle. Planaria (Dugesia japonica) were kept in water (Poland Spring, Poland, ME) at 20° c. All animals were starved for 7 days prior to surgery. Planaria were surgically injured post-ocularly and received either vehicle (0.1% ethanol) or 10 nM 4,5-RCTR1 in water one-hour post-injury. Tissue regeneration was monitored daily for six days via a Zeiss Axiovert 40 CFL Microscope (Jena, Germany) equipped with a Lumenera Infinity 3 Camera (Ottawa, Canada) running Image-Pro Plus (Version 7.0.0.591, Media Cybernetics, Rockville, MD, USA). Regenerated tissue was quantified using ImageJ software (NIH). The tissue regeneration index (TRI) normalizes the total area of regenerated tissue by the post-ocular width. The TRI50 is the amount of time it takes to reach 50% of the maximum […]. […] FIGS. 2A, 2B and 2C: Planaria were surgically injured post-ocular and received either vehicle (0.1% ethanol) or 4,5-RCTR1 one-hour post-injury and imaged daily for six days. 2A) Representative images of Planaria regeneration from Day 1-6 post-surgical injury. 2B) Tissue regeneration indices (μm) from Day 1-6 post-surgically injured Planaria. 2C) Tissue regeneration rate (TRR, μm/day) is the rate (area of tissue regeneration/days at TRI50) to achieve 50% tissue regeneration after surgical injury. n=6 Planaria per group per day. Data represented as mean±SEM. Unpaired two-tailed Student's t-test. *p<0.05, **p<0.01, ***p<0.001, and ****p<0.0001 versus vehicle.

[3] = test system: human PBMCs; test: Granuloma assay: human PBMCs with E. coli total protein extract-coupled sepharose beads; assay type: cell-based; settings: single treatment 10 nM at time 0; scoring 0-4 at day 3; versus vehicle
Procedure: FIG. 3: Resolvin (Rv) Peptido-Lipids Delay Human Granuloma Formation. Freshly isolated human PBMCs were incubated with E. coli total protein extract covalently coupled CNBr-activated sepharose beads and received a single treatment of either vehicle (0.1% methanol or ethanol), 10 nM RvD3, 10 nM RCTR1, or 10 nM 4,5-RCTR1 at time 0 and incubated for 6 days. A) Scoring of day 3 granuloma severity post-single treatment with either vehicle (0.1% methanol or ethanol), 10 nM RvD3, 10 nM RCTR1, or 10 nM 4,5-RCTR1. n=3 individual human donors. Mean±SEM. Unpaired two-tailed Student's t-test. **p<0.01, ***p<0.001 versus vehicle. B) Representative images of granuloma formation on day 3 after a single treatment with either vehicle (0.1% methanol or ethanol), 10 nM RvD3, 10 nM RCTR1, or 10 nM 4,5-RCTR1. […]
E. coli (Serotype: 06:K2:H1) was grown overnight in Luria broth in an orbital shaker (400 rpm) at 37° C. […] Supernatant was taken before and after the coupling reaction and measured for protein content by BCA assay (Thermo Fisher Scientific) to determine the efficiency of the reaction. […]
Freshly isolated PBMCs (1×10^6 cells/well) were treated with either vehicle (0.1% ethanol), RvD3 (10 nM), RCTR1 (10 nM) or 4,5-RCTR1 (10 nM) and E. coli total protein lysate-coated CNBr-activated sepharose beads simultaneously in 1 mL complete RPMI-1640. […] Granulomas were scored based on formation progression. […]

- half-life in the body [1]: relatively sort half-life
SMILES: CC/C=C\C[C@H](O)/C=C/C=C\C\C=C/C=C/C=C/[C@@H](SC[C@H](NC(=O)CC[C@H](N)C(=O)O)C(=O)NCC(=O)O)[C@@H](O)CCC(=O)O [4,5-RCTR1, 5-glutathionyl, 4,17-hydroxy-docosahexaenoic acid]
- amount of tissue regenerated ([2]; in vivo): increases the amount of tissue regenerated
- time required for tissue regeneration ([2]; in vivo): accelerates the time required for tissue regeneration
- regenerative action / planaria regeneration ([2]; surgically injured post-ocular, 10 nM one-hour post-injury, imaged daily for six days, versus vehicle): regenerative action
- granuloma formation [3]: significantly delays granuloma formation
